Assay [1] has as its system T1, NFAg31A (also printed NFEg31A), product of ORF15963.
T1 construct: 960 aa ORF without 30 aa signal peptide (primer-derived start M-VKHENFKK, end REWRI), incl; C-terminal DUF5100; 6xHis kept, printed C-terminal (but reverse primer holds a stop, so probably N-terminal pET-28a tag); E. coli BL21(DE3)
The experiment in a line: HPAEC-PAD of released glucose, Michaelis-Menten fit. The assay is classed as biochemical. To be noted: pH 7.0, 45 ℃, 15 min, 0.25 µM enzyme. The text has this: HPAEC-PAD of released glucose, Michaelis-Menten fit on NFAg31A (also printed NFEg31A), product of ORF15963

Assay [2] shares this test system. The experiment in a line: p-nitrophenol release at […] nm, Michaelis-Menten fit. The assay is classed as biochemical. To be noted: pH 7.0, 45 ℃, 15 min, 0.25 µM enzyme.

This is an account of results in publication PMC10268404, “Insight into broad substrate specificity and synergistic contribution of a fungal α-glucosidase in Chinese Nong-flavor daqu” (Microbial Cell Factories, 2023).

Molecules are shown by their SMILES.

A word on the Km: it is the substrate concentration at which the rate is half of its maximum.

Turning to `OC[C@H]1O[C@H](O[C@H]2C(O)O[C@H](CO)[C@@H](O)[C@@H]2O)[C@H](O)[C@@H](O)[C@@H]1O` (stereo partly shown) [Kojibiose], in assay [1], the Michaelis-Menten constant (Km) came to 3.9 ± 0.3 mM.
As to `OC[C@H]1O[C@H](O[C@H]2[C@H](O)[C@@H](O)C(O)O[C@@H]2CO)[C@H](O)[C@@H](O)[C@@H]1O` (stereo partly shown) [Maltose], in assay [1], the Km turned out to be 11.5 ± 0.7 mM.
Still for that read-out and setting: the same measure for `OC[C@H]1O[C@H](O[C@H]2[C@H](O)[C@@H](CO)OC(O)[C@@H]2O)[C@H](O)[C@@H](O)[C@@H]1O` (stereo partly shown) [Nigerose]: 19.3 ± 2.5 mM.
Take `O=[N+]([O-])c1ccc(O[C@H]2O[C@H](CO)[C@@H](O)[C@H](O)[C@H]2O)cc1` [pNPαG, p-Nitrophenyl-α-D-glucopyranoside]: the Km in assay [2] is 0.55 ± 0.06 mM.
